Data set [1] concerns NCI-N87. Description: in vitro cytotoxicity, MTS (Table 14). It is filed as cell-based. To be noted: Homo sapiens, YHO-13351 2 μM, Ko143 1 μM where added. The protocol:
(§1) Each cell line was maintained according to the recommendations of ATCC and routinely tested for mycoplasma using MYCOALERT™ mycoplasma detection kits (Lonza). The two SN-38-resistant cell lines, MDA-MB-231-5120 and NCI-N87-S120, were established by continuous exposure of the parental cells to stepwise increased concentrations of SN-38 from 6 pM to 120 nM over a period of approximately 2 years. In addition, a revertant cell line (NCI-N87-S120-REV) was obtained after culturing NCI-N87-S120 in SN-38-free medium for 4 months. The S-120 clones were maintained in medium containing 120 nM of SN-38, but cultured in drug-free medium for 7 to 14 days prior to any experiment. All cells were grown at 37° C. as monolayer cultures in a humidified atmosphere of 5% CO2.
In Vitro cytotoxicity. […] Briefly, cells were placed into wells of 96-well plates. […] Cytotoxicity was measured as a percent of growth relative to untreated cells. Dose-response curves were generated from the mean of triplicate determinations, and IC50 values were calculated using GraphPad Prism Software V 6.05 (Advanced Graphics Software).
(§2) The effect of ABCG2 inhibitors on the IC50 values of SN-38 for the parental and resistant cell lines was determined from the respective dose-response curves obtained for SN-38 in the presence of a non-toxic concentration of ABCG2 inhibitors.

Another data set concerns MDA-MB-231-S120. Description: in vitro cytotoxicity, MTS (Table 14). In kind it is cell-based, human. The conditions noted are these: for IC50: MDA-MB-231-S120, YHO-13351 2 μM where added; for RF (resistance factor): IC50 mean of MDA-MB-231-S120 / MDA-MB-231. The protocol:
as §1
(§3) In Vitro cytotoxicity. […] Briefly, cells were placed into wells of 96-well plates. […] From these working solutions, serial 5-fold dilutions were made in sterile media to yield final concentrations between 500 and 0.0064 nM in test wells. […] Cytotoxicity was measured as a percent of growth relative to untreated cells. Dose-response curves were generated from the mean of triplicate determinations, and IC50 values were calculated using GraphPad Prism Software V 6.05 (Advanced Graphics Software).
as §2

For data set [2], the system named is MDA-MB-231. Description: in vitro cytotoxicity, MTS (Table 14). It is filed as cell-based, human. To be noted: YHO-13351 2 μM where added. As for the experimental part: as §1, §3, §2
The subject of the next data set is NCI-N87-S120. Nature of the data set: in vitro cytotoxicity, MTS (Table 14). To be noted: for IC50: NCI-N87-S120, YHO-13351 2 μM, Ko143 1 μM where added; for RF (resistance factor): IC50 mean of NCI-N87-S120 / NCI-N87. It is filed as cell-based, human. As for the experimental part: as §1, §3, §2
Another data set relates to sublines of PC-6. The conditions noted are these: Kawabata et al., 2001; cited from earlier work.
A further data set relates to sublines of HeLa. To be noted: Takara et al., 2009; cited from earlier work.
For the next data set, the system named is subline of H23. To be noted: Bessho et al., 2006; cited from earlier work.
The conditions of data set [3]: Weidner et al., 2015; cited from earlier work.
The subject of the next data set is p21^Waf1/Cip1 in BxPC-3. Nature of the data set: p21Waf1/Cip1 expression. It is filed as cell-based, human. From the text:
SN-38 is known to activate several signaling pathways in cells, leading to apoptosis (e.g., Cusack et al., 2001, Cancer Res 61:3535-40; Liu et al. 2009, Cancer Lett 274:47-53; Lagadec et al., 2008, Br J Cancer 98:335-44). Our initial studies examined the expression of 2 proteins involved in early signaling events (p21^Waf1/Cip1 and p53) and 1 late apoptotic event [cleavage of poly-ADP-ribose polymerase (PARP)] in vitro (not shown).

In another data set the test system is p53 in BxPC-3 and Calu-3. Description: p53 expression. It is filed as cell-based, human. The protocol: In addition, p53 expression in cells exposed to the ADC was higher in both cell lines compared to SN-38 (not shown). […] In terms of later apoptotic events, cleavage of PARP was evident in both cell lines when incubated with either SN-38 or the conjugate (not shown). […] The higher degree of cleavage with free SN-38 over the ADC was consistent with the cytotoxicity findings.

Data set [4] concerns p21^WAF1/Cip1 in MDA-MB-468. Nature of the data set: immunoblotting of apoptotic pathway. To be noted: by 48 h. In kind it is cell-based, human. The protocol:
Cells (2×10^6) were plated in 6-well plates overnight. […] Parental hRS7 was used as a control for the ADC.

In a further data set the test system is NCI-N87-S120-REV. Description: in vitro cytotoxicity, MTS. It is filed as cell-based, human. To be noted: revertant after 4 months in SN-38-free medium. The protocol:
as §1, §3

For data set [5], the system named is MDA-MB-231. Nature of the data set: double-strand breaks, γH2AX. It is filed as cell-based, human. To be noted: 250 nM, after 3 h. As for the experimental part: (§4) Cells (5×10^5 cells/mL per sample) were incubated with or without SN-38 (250 nM) at 37° C. for the indicated times, fixed in 4% formalin for 15 min, then washed and permeabilized in 0.15% TRITON™ X-100 in PBS for 15 min. After washing twice with 1% bovine serum albumin-PBS, the cells were incubated with murine anti-γH2AX-AF488 for 45 min at 4° C. The signal intensity of γH2AX was measured by flow cytometry using a FACSCALIBUR™ (BD Biosciences).

Data set [6] deals with NCI-N87. Description: double-strand breaks, γH2AX. In kind it is cell-based, human. The conditions noted are these: 250 nM, after 3 h. The protocol: as §4

The text below walks through data of US10954305B2 (Immunomedics, Inc., priority 2016, dated 2021).

For `COc1cccc2c1C(=O)c1c(O)c3c(c(O)c1C2=O)C[C@@](O)(C(=O)CO)C[C@@H]3O[C@H]1C[C@H](N)[C@H](O)[C@H](C)O1` [Doxorubicin], the IC50 (usually the concentration that inhibits the measured activity by half) in the data set with NCI-N87 [1] is 32.2 ± 7.5 nM; in the data set on MDA-MB-231-S120 (Homo sapiens), 43.1 ± 4.6 nM; in the data set on MDA-MB-231 [2] (Homo sapiens), 10.9 ± 0.6 nM; with NCI-N87-S120 (Homo sapiens) it was 74.6 ± 3.3 nM. The “RF (resistance factor)” value in the data set on MDA-MB-231-S120 turned out to be 4.0; with NCI-N87-S120 it was 2.3. For the same compound, the resistance ratio result is “less than 1.3” in the data set with sublines of PC-6, 2.5 in the data set with sublines of HeLa and “about 7.0” in the data set with subline of H23.
As to `COc1ccc2c3c([nH]c2c1)[C@H](CC(C)C)N1C(=O)[C@H](CCC(=O)OC(C)(C)C)NC(=O)[C@@H]1C3` [Ko143], in the data set with NCI-N87-S120 (both S-120 cells, in vitro), the “effect on SN-38 toxicity in S-120 cells” value is reported as “restored toxicity of SN-38”. The “stability in rat serum” value in data set [3] is reported as “instability”.
As to `CCc1c2c(nc3ccc(O)cc13)-c1cc3c(c(=O)n1C2)COC(=O)[C@]3(O)CC` [SN-38, 7-ethyl-10-hydroxycamptothecin], the “increase in p21^Waf1/Cip1 expression” value in the data set with p21^Waf1/Cip1 in BxPC-3 was 20 fold. Further, the “time to upregulation of p53” value in the data set on p53 in BxPC-3 and Calu-3 amounted to 48 h. In addition, in data set [4], the “decrease of p21^WAF1/Cip1” value was found to be 31%. In addition, the “RF (resistance factor)” value with MDA-MB-231-S120 was determined as 51.7; in the data set on NCI-N87-S120, 49.1. For the same compound, the IC50 with MDA-MB-231-S120 came out at 248 ± 79 nM; with MDA-MB-231 [2], 4.8 ± 1.7 nM; with NCI-N87-S120, 211 ± 39 nM; in the data set with NCI-N87-S120-REV, 50 nM. Also, the “resistance of S-120 cells vs parental cells” value with NCI-N87-S120 (both S-120 cells) is recorded as “about 50 fold”. Also, the “increase of γH2AX over untreated controls” value with MDA-MB-231 [5] is recorded as “about 2 fold”; with NCI-N87 [6] it was “about 4 fold”.
